Reference: article PMC6067974 (Neuropharmacology, 2018)

How the values were obtained:
mouse A2AAR = mouse A2AAR (Mus musculus, UniProt Q60613); conditions: read-out: mouse Ki, A2AAR, ref Alnouri et al., 2015; cited from earlier work
[1] = biological target: serotonin transporter (SERT) (Homo sapiens, UniProt P31645); assay: PDSP off-target radioligand binding, serotonin transporter
A1AR = conditions: read-out: rat Ki, A1AR, ref Alnouri et al., 2015; cited from earlier work
mouse A2BAR [2] = conditions: ref van der Hoeven et al., 2011, cited from earlier work
[3] = system: hypothalamic neurons (Fos); assay: Drug-induced neuronal activation; type: in vivo, mouse; conditions: BAY60-6583 0.004 mg/kg i.c.v.; Adora1−/−;Adora3−/− mice; 1 h; vs vehicle
mouse A2BAR [4] = assay: Cell-based assay at mouse A2BAR; conditions: EC50 2.8 nM vs Ki 136 nM
mice [5] = assay: Indirect calorimetry; conditions: BAY60-6583 1 mg/kg, i.p.; C57BL/6J mice
mouse A1AR = biological target: T1, mouse A1AR (Mus musculus, UniProt Q60612); assay: Radioligand binding, mouse A1AR; conditions: ratio of rat Ki to mouse Ki at A1AR
T1 sequence (Q60612 1-326): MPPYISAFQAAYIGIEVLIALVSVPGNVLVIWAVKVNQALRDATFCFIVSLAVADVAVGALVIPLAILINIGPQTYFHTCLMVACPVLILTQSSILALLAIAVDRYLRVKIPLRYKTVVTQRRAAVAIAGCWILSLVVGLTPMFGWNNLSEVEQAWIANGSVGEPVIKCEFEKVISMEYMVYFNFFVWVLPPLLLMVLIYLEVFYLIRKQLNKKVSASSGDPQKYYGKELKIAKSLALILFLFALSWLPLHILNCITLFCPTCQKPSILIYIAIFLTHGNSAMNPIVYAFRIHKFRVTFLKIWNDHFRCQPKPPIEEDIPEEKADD

mice [6] = assay: Telemetric monitoring of Tb and physical activity in mice; type: in vivo, mouse
[7] = BAY60-6583 0.5–2 mg/kg, i.p., C57BL/6J mice

Chain of serotonin transporter (SERT) (P31645 whole entry): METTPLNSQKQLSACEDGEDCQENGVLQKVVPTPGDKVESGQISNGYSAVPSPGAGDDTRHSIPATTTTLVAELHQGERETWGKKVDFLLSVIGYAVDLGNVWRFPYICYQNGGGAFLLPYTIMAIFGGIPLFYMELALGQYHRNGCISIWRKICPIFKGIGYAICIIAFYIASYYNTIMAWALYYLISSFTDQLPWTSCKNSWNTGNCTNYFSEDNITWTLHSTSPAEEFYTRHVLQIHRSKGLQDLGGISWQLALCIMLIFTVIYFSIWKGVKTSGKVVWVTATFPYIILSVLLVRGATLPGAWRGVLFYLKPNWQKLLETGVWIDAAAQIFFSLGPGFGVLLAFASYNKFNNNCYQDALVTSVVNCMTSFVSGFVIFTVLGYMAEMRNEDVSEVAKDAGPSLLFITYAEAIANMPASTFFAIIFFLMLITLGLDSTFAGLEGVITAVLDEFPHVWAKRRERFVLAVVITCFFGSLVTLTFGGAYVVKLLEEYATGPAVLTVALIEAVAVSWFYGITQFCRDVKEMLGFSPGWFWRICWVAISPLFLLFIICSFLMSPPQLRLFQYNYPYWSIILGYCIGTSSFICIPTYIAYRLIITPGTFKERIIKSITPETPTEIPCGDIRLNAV
Chain of mouse A2AAR (Q60613 whole entry): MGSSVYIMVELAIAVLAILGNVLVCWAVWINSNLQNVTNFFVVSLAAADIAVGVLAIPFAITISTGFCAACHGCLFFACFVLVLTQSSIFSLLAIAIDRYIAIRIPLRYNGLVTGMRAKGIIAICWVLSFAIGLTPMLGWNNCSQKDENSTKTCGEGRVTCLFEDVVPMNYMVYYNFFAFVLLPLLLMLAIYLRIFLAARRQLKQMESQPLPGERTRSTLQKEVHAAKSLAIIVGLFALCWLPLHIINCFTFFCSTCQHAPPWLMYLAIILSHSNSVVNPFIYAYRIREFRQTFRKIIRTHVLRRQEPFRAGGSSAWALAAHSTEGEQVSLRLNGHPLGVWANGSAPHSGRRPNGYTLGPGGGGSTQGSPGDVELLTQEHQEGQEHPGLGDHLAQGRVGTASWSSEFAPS

Structure (SMILES): N#Cc1c(N)nc(SCC(N)=O)c(C#N)c1-c1ccc(OCC2CC2)cc1 [BAY60-6583, 2-[6-amino-3,5-dicyano-4-[4-(cyclopropylmethoxy)phenyl]pyridin-2-ylsulfanyl]acetamide]
- Ki (mouse A2AAR): > 10000 nM
- Ki [1]: 5600 nM
- Ki (A1AR): 514 nM
- adenosine receptor activation selectivity (mouse A2BAR [2]; not mouse A1AR, A2AAR, or A3AR): activate only mouse A2BAR
- EC50 (mouse A2BAR [2]; read-out: EC50 at mouse A2BAR, cell-based assay): 2.8 nM
- Fos immunoreactivity, dorsomedial hypothalamus (DMH) [3]: not significantly different
- Fos immunoreactivity, ventromedial hypothalamus (VMH) [3]: not significantly different
- Fos immunostaining, paraventricular hypothalamus (PVH) [3]: increased Fos immunostaining
- Fos immunostaining, preoptic area (POA) [3]: increased Fos immunostaining
- EC50 better than the binding affinity at A2BAR (mouse A2BAR [4]): 50 fold
- food intake (mice [5]): lowered
- metabolic rate (total energy expenditure) (mice [5]): lowered metabolic rate
- respiratory exchange ratio (mice [5]): lowered
- A1AR rat: mouse ratio (mouse A1AR): 1.5
- Tb response (hypothermia) (mice [6]; BAY60-6583 0.004 mg/kg i.c.v., Adora1−/−;Adora3−/− mice): more modest effects
- Tb response (hypothermia) (mice [6]; BAY60-6583 0.004 mg/kg, i.c.v., C57BL/6J (WT) mice): caused hypothermia
- Tb response (hypothermia) (mice [6]; BAY60-6583 0.04 mg/kg i.c.v., Adora1−/−;Adora3−/− mice): profound, prolonged hypothermia
- Tb response (hypothermia) (mice [6]; BAY60-6583 1 mg/kg, i.p., Adora2b−/− mice, 1 mg/kg): completely abolished
- Tb response (hypothermia) (mice [6]; BAY60-6583 1 mg/kg, i.p., KitW−sh/W−sh mice): intact
- Tb response (hypothermia) (mice [6]; [7]): dose-dependent hypothermia
- physical activity (mice [6]; [7]): hypoactivity
- i.c.v. dose as fraction of a similarly hypothermic i.p. dose (mice [6]; BAY60-6583, i.c.v. vs i.p.): 1/150
- Tb response (hypothermia) (mice [6]; BAY60-6583 i.p., Adora1−/−;Adora3−/− mice, not shown): intact
